Test results published in ChEMBL document CHEMBL1201862, “PubChem BioAssay data set” (2004).
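How tested: cells in 96-well plates exposed to compound for 48 hours at five concentrations. GI50 marks 50% less growth.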 The source made the active and inactive calls. Cut-off read from the data, not from the text of the source: active = GI50 up to about 1.1 µM and inactive = higher.

Experiments:
Experiment in all cases: NCI-60 cell line screen, 48 h
[1] = system: SNB-78
[2] = system: HOP-62
[3] = system: A549
[4] = system: SK-MEL-5
[5] = system: KM-20L2
[6] = system: SF-295
[7] = system: 786-0
[8] = system: SNB-19
[9] = system: SW-620
[10] = system: DMS-114
[11] = system: OVCAR-8
[12] = system: TK-10
[13] = system: SK-OV-3
[14] = system: EKVX
[15] = system: HCC 2998
[16] = system: HOP-18
[17] = system: SF-539
[18] = system: HCT-15
[19] = system: IGROV-1
[20] = system: M14
[21] = system: SN12C
[22] = system: UACC-62
[23] = system: RXF 631
[24] = system: ACHN
[25] = system: A498
[26] = system: SK-MEL-28
[27] = system: HL-60
[28] = system: KM12
[29] = system: Malme-3M
[30] = system: CCRF-CEM
[31] = system: UO-31
[32] = system: LOX IMVI
[33] = system: U-251
[34] = system: K562
[35] = system: NCI-H522
[36] = system: COLO 205
[37] = system: M19-MEL
[38] = system: NCI-H460
[39] = system: UACC-257
[40] = system: SF-268
[41] = system: RXF 393
[42] = system: NCI-H23
[43] = system: LXFL 529
[44] = system: MOLT-4
[45] = system: OVCAR-3
[46] = system: SNB-75
[47] = system: SK-MEL-2
[48] = system: OVCAR-5
[49] = system: NCI-H226
[50] = system: RPMI-8226
[51] = system: DMS-273
[52] = system: HCT-116
[53] = system: SR
[54] = system: HT-29
[55] = system: CAKI-1
[56] = system: OVCAR-4
[57] = system: DLD-1

Structure (SMILES): c1ccc(OCCSCCCCCCCCCCSCCOc2ccccc2)cc1
- GI50 [1]: > 100 µM (inactive)
- GI50 [2]: 24.7 µM (inactive)
- GI50 [3]: 31.6 µM (inactive)
- GI50 [4]: 28.9 µM (inactive)
- GI50 [5]: > 100 µM (inactive)
- GI50 [6]: 30.7 µM (inactive)
- GI50 [7]: 50.4 µM (inactive)
- GI50 [8]: > 100 µM (inactive)
- GI50 [9]: 54.2 µM (inactive)
- GI50 [10]: > 100 µM (inactive)
- GI50 [11]: 61.2 µM (inactive)
- GI50 [12]: 16.9 µM (inactive)
- GI50 [13]: > 100 µM (inactive)
- GI50 [14]: 16.9 µM (inactive)
- GI50 [15]: > 100 µM (inactive)
- GI50 [16]: > 100 µM (inactive)
- GI50 [17]: > 100 µM (inactive)
- GI50 [18]: > 100 µM
- GI50 [19]: > 100 µM (inactive)
- GI50 [20]: > 100 µM (inactive)
- GI50 [21]: > 100 µM (inactive)
- GI50 [22]: > 100 µM (inactive)
- GI50 [23]: > 100 µM (inactive)
- GI50 [24]: 48.1 µM (inactive)
- GI50 [25]: 27.5 µM (inactive)
- GI50 [26]: > 100 µM (inactive)
- GI50 [27]: > 100 µM (inactive)
- GI50 [28]: > 100 µM (inactive)
- GI50 [29]: 14.7 µM (inactive)
- GI50 [30]: > 100 µM (inactive)
- GI50 [31]: 65.3 µM (inactive)
- GI50 [32]: > 100 µM (inactive)
- GI50 [33]: 74.3 µM (inactive)
- GI50 [34]: > 100 µM (inactive)
- GI50 [35]: > 100 µM (inactive)
- GI50 [36]: > 100 µM (inactive)
- GI50 [37]: > 100 µM (inactive)
- GI50 [38]: 37.8 µM (inactive)
- GI50 [39]: > 100 µM (inactive)
- GI50 [40]: > 100 µM (inactive)
- GI50 [41]: > 100 µM (inactive)
- GI50 [42]: > 100 µM (inactive)
- GI50 [43]: > 100 µM (inactive)
- GI50 [44]: > 100 µM (inactive)
- GI50 [45]: > 100 µM (inactive)
- GI50 [46]: > 100 µM (inactive)
- GI50 [47]: > 100 µM (inactive)
- GI50 [48]: > 100 µM (inactive)
- GI50 [49]: > 100 µM (inactive)
- GI50 [50]: > 100 µM (inactive)

Structure (SMILES): CC(C)CC(N/C=C1/N=C(c2ccccc2)OC1=O)C(=O)O (stereo not given)
- GI50 [1]: > 100 µM (inactive)
- GI50 [2]: > 100 µM (inactive)
- GI50 [3]: > 100 µM (inactive)
- GI50 [4]: > 100 µM (inactive)
- GI50 [5]: > 100 µM (inactive)
- GI50 [6]: > 100 µM (inactive)
- GI50 [7]: > 100 µM (inactive)
- GI50 [8]: > 100 µM (inactive)
- GI50 [9]: > 100 µM (inactive)
- GI50 [10]: > 100 µM (inactive)
- GI50 [11]: > 100 µM (inactive)
- GI50 [12]: > 100 µM (inactive)
- GI50 [51]: > 100 µM (inactive)
- GI50 [13]: > 100 µM (inactive)
- GI50 [14]: > 100 µM (inactive)
- GI50 [15]: > 100 µM (inactive)
- GI50 [17]: > 100 µM (inactive)
- GI50 [52]: > 100 µM (inactive)
- GI50 [18]: > 100 µM
- GI50 [19]: > 100 µM (inactive)
- GI50 [20]: > 100 µM (inactive)
- GI50 [53]: > 100 µM (inactive)
- GI50 [21]: > 100 µM (inactive)
- GI50 [22]: > 100 µM (inactive)
- GI50 [23]: > 100 µM (inactive)
- GI50 [24]: > 100 µM (inactive)
- GI50 [25]: > 100 µM (inactive)
- GI50 [26]: > 100 µM (inactive)
- GI50 [27]: > 100 µM (inactive)
- GI50 [28]: > 100 µM (inactive)
- GI50 [54]: > 100 µM (inactive)
- GI50 [29]: > 100 µM (inactive)
- GI50 [30]: > 100 µM (inactive)
- GI50 [31]: > 100 µM (inactive)
- GI50 [32]: > 100 µM (inactive)
- GI50 [33]: > 100 µM (inactive)
- GI50 [55]: > 100 µM (inactive)
- GI50 [34]: > 100 µM (inactive)
- GI50 [35]: > 100 µM (inactive)
- GI50 [56]: > 100 µM (inactive)
- GI50 [36]: > 100 µM (inactive)
- GI50 [37]: > 100 µM (inactive)
- GI50 [38]: > 100 µM (inactive)
- GI50 [39]: > 100 µM (inactive)
- GI50 [40]: > 100 µM (inactive)
- GI50 [41]: > 100 µM (inactive)
- GI50 [42]: > 100 µM (inactive)
- GI50 [44]: > 100 µM (inactive)
- GI50 [45]: > 100 µM (inactive)
- GI50 [46]: 37.3 µM (inactive)
- GI50 [47]: > 100 µM (inactive)
- GI50 [57]: > 100 µM (inactive)
- GI50 [48]: > 100 µM (inactive)
- GI50 [49]: > 100 µM (inactive)
- GI50 [50]: > 100 µM (inactive)
